Source: US20040191297A1, “Carotenoid formulation” (priority 1997, published 2004)

Columns and labels:
[1] = Lycopene content of rat prostate gland; type: in vivo, Fischer 344 rats; settings: male
From the text: (§1) homogenized. […] This hexane extraction procedure was repeated 5-7 times.

[2] = in vivo; settings: Fischer 344, rat
Procedure: Breast, liver and prostate tissue contain lipids which interfere with the assay. Consequently, a saponification step was required prior to organic extraction. Tissue was homogenized in 20 ml methanol to which echinenone was added as internal standard. For breast tissue, which comprise of 85% adipocytes, 8.0 ml 50% NaOH and 4.0 ml 25% sodium ascorbate was added and the mixture was homogenized. For prostate and liver tissue, which contain less lipid, 4.0 ml and 50% NaOH. and 2.0 ml sodium ascorbate were added and the mixture was
homogenized. Saponification was carried out in 50 ml tubes saturated with N2 gas overnight in a temperature controlled shaker bath at 30° C. Following saponification, 10 ml hexane was add d to each tube and vortexed for 1 minute. The mixture was then centrifuged at 2000 rpm for 10 min at 4° C. and the hexane layer was decanted and saved. This hexane extraction procedure was repeated 5-7 times. The pooled hexane extract was then dried under N2 gas at 60° C., dissolved in injection solvent and analyzed by HPLC. Lung and colon tissue were processed in an identical manner with the exception that the saponification step was omitted.

[3] = Ten-week MTD feeding study: weight gain and toxicity; type: in vivo
Procedure: Inbred Fischer F344 males (n=70) and females (n=70) were obtained from Taconic Farms, Germantown, N.Y. At about 35 days of age, all animals were transferred to the experimental room from quarantine. The animals were then allocated into experimental groups using formal randomization methods to ensure that each group contained animals of the same mean weight.
A ten-week pilot study was conducted as described in Table 2 & FIG. 2 to determine the maximal tolerated dose (MTD) for lycopene in both male (colon model) and female (breast model) rats. The choice of dose ranges was based on published values for β-carotene. A mixed carotenoid composition containing 5.7% carotenoids, including 3.7% pure lycopene was suspended in medium chain triglycerides (this composition will be referred to below as the “Lycopene Suspension”). The Lycopene Suspension was incorporated into the AIN-76A diet.
Differences in the lipid content of the various treatment groups were controlled by supplementing their diets with appropriate amounts of Neobee® medium chain triglyceride (Stepan Co., Maywood, N.J.) such that all animals, including controls, received the same amount of dietary fat.
Animal weights were recorded once per week and animal appearance (coat texture) and food avoidance behavior assessed. By concentration,
the maximal tolerated dose is that dose which […] mean body weight loss.

[4] = Lycopene content of rat mammary gland; type: in vivo, Fischer 344 rats; settings: female
From the text: as §1

With CC(C)=CCC/C(C)=C/C=C/C(C)=C/C=C/C(C)=C/C=C/C=C(C)/C=C/C=C(C)/C=C/C=C(\C)CCC=C(C)C [Lycopene] the “Lycopene content of prostate gland, Median” value ([1]; Group 1 (1280 mg/kg diet)) was 99 ng/g, the “Lycopene content of prostate gland, Range” value ([1]; Group 1 (1280 mg/kg diet)) was 79 to 112 ng/g and the “Lycopene content of prostate gland, mean ± SD” value ([1]; Group 1 (1280 mg/kg diet)) was 97 ± 17 ng/g. The “Lycopene content of prostate gland, Median” value ([1]; Group 2 (512 mg/kg diet)) was 83 ng/g, the “Lycopene content of prostate gland, Range” value ([1]; Group 2 (512 mg/kg diet)) was 54 to 147 ng/g and the “Lycopene content of prostate gland, mean ± SD” value ([1]; Group 2 (512 mg/kg diet)) was 95 ± 48 ng/g. The “Lycopene content of prostate gland, Median” value ([1]; Group 3 (256 mg/kg diet)) was 35 ng/g, the “Lycopene content of prostate gland, Range” value ([1]; Group 3 (256 mg/kg diet)) was 23 to 93 ng/g and the “Lycopene content of prostate gland, mean ± SD” value ([1]; Group 3 (256 mg/kg diet)) was 50 ± 37 ng/g. The “Lycopene content of prostate gland, Median” value ([1]; Group 4 (128 mg/kg diet)) was 52 ng/g, the “Lycopene content of prostate gland, Range” value ([1]; Group 4 (128 mg/kg diet)) was 26 to 77 ng/g and the “Lycopene content of prostate gland, mean ± SD” value ([1]; Group 4 (128 mg/kg diet)) was 52 ± 26 ng/g. The “Lycopene content of prostate gland, Median” value ([1]; Group 5 (51 mg/kg diet)) was 47 ng/g, the “Lycopene content of prostate gland, Range” value ([1]; Group 5 (51 mg/kg diet)) was 32 to 63 ng/g and the “Lycopene content of prostate gland, mean ± SD” value ([1]; Group 5 (51 mg/kg diet)) was 47 ± 16 ng/g. The Kp [2] was 100 to 1000, the toxicity ([3]; F-344 rat, dose range used) was “no evidence of lycopene toxicity” and the “difference in weight gains between doses” value ([3]; analysis of variance for repeated measures) was “no difference”. The “weight gain difference, control vs supplemented rats” value ([3]; end of 10 weeks) was ≤ 10%, the “effect on food intake or weight gain” value ([3]; male and female rats, dosage range used) was “no deleterious effect” and the “Lycopene content of mammary gland, Median” value ([4]; Group 1 (1280 mg/kg diet)) was 235 ng/g. For the same compound, the “Lycopene content of mammary gland, Range” value ([4]; Group 1 (1280 mg/kg diet)) was 232 to 460 ng/g, the “Lycopene content of mammary gland, mean ± SD” value ([4]; Group 1 (1280 mg/kg diet)) was 309 ± 131 ng/g and the “Lycopene content of mammary gland, Median” value ([4]; Group 2 (512 mg/kg diet)) was 197 ng/g. The “Lycopene content of mammary gland, Range” value ([4]; Group 2 (512 mg/kg diet)) was 172 to 231 ng/g, the “Lycopene content of mammary gland, mean ± SD” value ([4]; Group 2 (512 mg/kg diet)) was 200 ± 030 ng/g and the “Lycopene content of mammary gland, Median” value ([4]; Group 3 (256 mg/kg diet)) was 220 ng/g. For the same compound, the “Lycopene content of mammary gland, Range” value ([4]; Group 3 (256 mg/kg diet)) was 139 to 282 ng/g, the “Lycopene content of mammary gland, mean ± SD” value ([4]; Group 3 (256 mg/kg diet)) was 215 ± 062 ng/g and the “Lycopene content of mammary gland, Median” value ([4]; Group 4 (128 mg/kg diet)) was 217 ng/g. The “Lycopene content of mammary gland, Range” value ([4]; Group 4 (128 mg/kg diet)) was 181 to 288 ng/g, the “Lycopene content of mammary gland, mean ± SD” value ([4]; Group 4 (128 mg/kg diet)) was 229 ± 054 ng/g and the “Lycopene content of mammary gland, Median” value ([4]; Group 5 (51 mg/kg diet)) was 143 ng/g. For the same compound, the “Lycopene content of mammary gland, Range” value ([4]; Group 5 (51 mg/kg diet)) was 139 to 239 ng/g and the “Lycopene content of mammary gland, mean ± SD” value ([4]; Group 5 (51 mg/kg diet)) was 174 ± 057 ng/g.
